Source: patent publication US5486531A, “Hydroxymethylfurazancarboxylic acid derivatives” (Cassella Aktiengesellschaft, priority 1993, dated 1996)
Where a name gives a salt, the structure may show the parent alone.

System: spiral strips of the arteria pulmonalis of the guinea pig
Test: relaxing effect on spiral strips of guinea pig arteria pulmonalis, contraction elicited by CaCl2 after depolarization with potassium (modified Godfraind and Kaba / Schuman)
Type: cell-based
Details: Cavia porcellus, read-out: IC50 (concentration of the test substance which inhibits the contraction by 50%)
Experimental: For this, spiral strips of the arteria pulmonalis of the guinea pig are depolarized,following equilibration in calcium-free Tyrode solution, with 40 mmol/l potassium. Addition of 0.5 mmol/l CaCl2 then elicits a contraction. The relaxing effect of the test substance is determined by adding it cummulatively.

SMILES	IC50 [µM]
O=[N+]([O-])O[C@@H]1CO[C@H]2[C@@H]1OC[C@@H]2O [Isosorbide 5-mononitrate, isosorbide 5-mononitrate, reference compound]	> 100

Same assay, conditions: Cavia porcellus; depolarized with 40 mmol/l potassium, contraction by 0.5 mmol/l CaCl2; cumulative addition; average value from 4 to 6 vessel strips; read-out: IC50 (concentration of the test substance which inhibits the contraction by 50%)

IC50 [µM]	SMILES
12	NC(=O)c1c(CO)no[n+]1[O-] [Compound 3 I, 4-Hydroxymethyl-2-oxyfurazan-3-carboxamide]
8	COCCNC(=O)c1c(CO)no[n+]1[O-] [Example 18, 4-Hydroxymethyl-N-(2-methoxyethyl)-2-oxyfurazan-3-carboxamide]
8	O=C(NCc1cccnc1)c1c(CO)no[n+]1[O-] [Example 8, 4-Hydroxymethyl-N-(3-pyridylmethyl)-2-oxyfurazan-3-carboxamide hydrochloride]
8	CC(C)NC(=O)c1c(CO)no[n+]1[O-] [Compound 1 I, 4-Hydroxymethyl-N-isopropyl-2-oxyfurazan-3-carboxamide]
7.3	CNC(=O)c1c(CO)no[n+]1[O-] [Example 4 I, 4-Hydroxymethyl-N-methyl-2-oxyfurazan-3-carboxamide]

Second part, the compound before the results:

SMILES	IC50 [µM]
C[C@H](NC(=O)c1c(CO)no[n+]1[O-])c1ccccc1 [Example 23, 4-Hydroxymethyl-N-((S)-1-phenylethyl)-2-oxyfurazan-3-carboxamide]	15
C[C@@H](NC(=O)c1c(CO)no[n+]1[O-])c1ccccc1 [Example 24, 4-Hydroxymethyl-N-((R)-1-phenylethyl)-2-oxyfurazan-3-carboxamide]	2
NS(=O)(=O)c1ccc(CCNC(=O)c2c(CO)no[n+]2[O-])cc1 [Example 26, 4-Hydroxymethyl-N-[2-(4-sulphamoylphenyl)-ethyl]-2-oxyfurazan-3-carboxamid]	11
CCOC(=O)[N-]c1cn(N2CCOCC2)n[o+]1 [Molsidomine, molsidomine, reference compound]	300
